What all share (assay): relative viability (nuclei count vs DMSO), 5 days (fraction); higher = more cells survive
Compound in the experiment “CUDC-101 + Palbociclib”: C#Cc1cccc(Nc2ncnc3cc(OC)c(OCCCCCCC(=O)NO)cc23)c1 [CUDC-101] + CC(=O)c1c(C)c2cnc(Nc3ccc(N4CCNCC4)cn3)nc2n(C2CCCC2)c1=O [Palbociclib] (partner 0.5 µM)
The gist of the method: (§1)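 Cells from lung cancer lines were seeded into 1536-well plates and, one day later, dosed by pin tool. Treatments were either a single drug or a fixed dose of an anchor drug with five library-drug doses (not always all listed) in √10 steps. After 5 days, nuclei were stained in a one-step fixation (final 0.05% Triton X-100, 1% formaldehyde, 1 ug/ml Hoechst) and counted on 4× images, and relative viability is the treated-to-vehicle nuclei ratio, as the median of duplicate plates.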

Compound in the experiment “CUDC-101 + Phenformin”: C#Cc1cccc(Nc2ncnc3cc(OC)c(OCCCCCCC(=O)NO)cc23)c1 [CUDC-101] + N=C(N)NC(=N)NCCc1ccccc1 [Phenformin] (partner 250 µM)
The gist of the method:
as §1

Compound in the experiment “NVP-TAE684 + Tozasertib”: COc1cc(N2CCC(N3CCN(C)CC3)CC2)ccc1Nc1ncc(Cl)c(Nc2ccccc2S(=O)(=O)C(C)C)n1 [NVP-TAE684] + Cc1cc(Nc2cc(N3CCN(C)CC3)nc(Sc3ccc(NC(=O)C4CC4)cc3)n2)n[nH]1 [Tozasertib] (partner 0.1 µM)
The gist of the method:
as §1

Compound in the experiment “NVP-TAE684 + Olaparib”: COc1cc(N2CCC(N3CCN(C)CC3)CC2)ccc1Nc1ncc(Cl)c(Nc2ccccc2S(=O)(=O)C(C)C)n1 [NVP-TAE684] + O=C(c1cc(Cc2n[nH]c(=O)c3ccccc23)ccc1F)N1CCN(C(=O)C2CC2)CC1 [Olaparib] (partner 8 µM)
The gist of the method:
as §1

As to NCI-H2009, the relative viability with CUDC-101 + Palbociclib (first compound 0.01 µM) turned out to be 0.219; with CUDC-101 + Palbociclib (first compound 0.03162 µM) it was 0.191; with CUDC-101 + Palbociclib (first compound 0.1 µM), 0.263; with CUDC-101 + Palbociclib (first compound 0.3162 µM), 0.258; in the experiment with CUDC-101 + Palbociclib (first compound 1 µM), 0.276; in the experiment with CUDC-101 + Phenformin (first compound 0.01 µM), 0.511. The relative viability in the experiment with CUDC-101 + Phenformin (first compound 0.03162 µM) amounted to 0.496; with CUDC-101 + Phenformin (first compound 0.1 µM), 0.534; in the experiment with CUDC-101 + Phenformin (first compound 0.3162 µM) it was 0.499; with CUDC-101 + Phenformin (first compound 1 µM) it was 0.404; with NVP-TAE684 + Tozasertib (first compound 0.2 µM) it was 0.77; in the experiment with NVP-TAE684 + Tozasertib (first compound 0.6325 µM), 0.704. In addition, the relative viability is 0.376 with NVP-TAE684 + Tozasertib (first compound 2 µM), 0.657 with NVP-TAE684 + Olaparib (first compound 0.2 µM), 0.665 with NVP-TAE684 + Olaparib (first compound 0.6325 µM) and 0.634 with NVP-TAE684 + Olaparib (first compound 2 µM).
With NCI-H2023, the relative viability is 0.42 with CUDC-101 + Palbociclib (first compound 0.01 µM); 0.342 in the experiment with CUDC-101 + Palbociclib (first compound 0.03162 µM); 0.457 in the experiment with CUDC-101 + Palbociclib (first compound 0.1 µM); 0.416 in the experiment with CUDC-101 + Palbociclib (first compound 0.3162 µM); 0.361 with CUDC-101 + Palbociclib (first compound 1 µM); 0.406 with CUDC-101 + Phenformin (first compound 0.01 µM). The relative viability with CUDC-101 + Phenformin (first compound 0.03162 µM) was found to be 0.379; with CUDC-101 + Phenformin (first compound 0.1 µM), 0.438; with CUDC-101 + Phenformin (first compound 0.3162 µM), 0.481; with CUDC-101 + Phenformin (first compound 1 µM), 0.341; with NVP-TAE684 + Tozasertib (first compound 0.2 µM), 0.413; with NVP-TAE684 + Tozasertib (first compound 0.6325 µM) it was 0.332. Moreover, the relative viability with NVP-TAE684 + Tozasertib (first compound 2 µM) worked out at 0.103; with NVP-TAE684 + Olaparib (first compound 0.2 µM) it was 0.587; with NVP-TAE684 + Olaparib (first compound 0.6325 µM), 0.518; in the experiment with NVP-TAE684 + Olaparib (first compound 2 µM), 0.138.
Regarding NCI-H2085, the relative viability is 0.438 with CUDC-101 + Palbociclib (first compound 0.01 µM); 0.468 with CUDC-101 + Palbociclib (first compound 0.03162 µM); 0.47 with CUDC-101 + Palbociclib (first compound 0.1 µM); 0.463 with CUDC-101 + Palbociclib (first compound 0.3162 µM); 0.466 with CUDC-101 + Palbociclib (first compound 1 µM); 0.654 with CUDC-101 + Phenformin (first compound 0.01 µM). Besides, the relative viability in the experiment with CUDC-101 + Phenformin (first compound 0.03162 µM) came to 0.679; with CUDC-101 + Phenformin (first compound 0.1 µM), 0.763; with CUDC-101 + Phenformin (first compound 0.3162 µM), 0.724; with CUDC-101 + Phenformin (first compound 1 µM) it was 0.593; with NVP-TAE684 + Tozasertib (first compound 0.2 µM), 0.803; with NVP-TAE684 + Tozasertib (first compound 0.6325 µM), 0.781. The relative viability in the experiment with NVP-TAE684 + Tozasertib (first compound 2 µM) amounted to 0.379; with NVP-TAE684 + Olaparib (first compound 0.2 µM), 0.819; with NVP-TAE684 + Olaparib (first compound 0.6325 µM), 0.754; in the experiment with NVP-TAE684 + Olaparib (first compound 2 µM) it was 0.714.
For NCI-H2087, the relative viability with CUDC-101 + Palbociclib (first compound 0.01 µM) came out at 0.284; with CUDC-101 + Palbociclib (first compound 0.03162 µM), 0.21; in the experiment with CUDC-101 + Palbociclib (first compound 0.1 µM) it was 0.238; with CUDC-101 + Palbociclib (first compound 0.3162 µM), 0.264; with CUDC-101 + Palbociclib (first compound 1 µM), 0.168; in the experiment with CUDC-101 + Phenformin (first compound 0.01 µM), 0.403. The relative viability with CUDC-101 + Phenformin (first compound 0.03162 µM) amounted to 0.465; with CUDC-101 + Phenformin (first compound 0.1 µM), 0.439; in the experiment with CUDC-101 + Phenformin (first compound 0.3162 µM) it was 0.413; in the experiment with CUDC-101 + Phenformin (first compound 1 µM), 0.316; with NVP-TAE684 + Tozasertib (first compound 0.2 µM) it was 0.22; in the experiment with NVP-TAE684 + Tozasertib (first compound 0.6325 µM) it was 0.262. Also, the relative viability with NVP-TAE684 + Tozasertib (first compound 2 µM) turned out to be 0.166; in the experiment with NVP-TAE684 + Olaparib (first compound 0.2 µM), 0.646; with NVP-TAE684 + Olaparib (first compound 0.6325 µM) it was 0.598; in the experiment with NVP-TAE684 + Olaparib (first compound 2 µM), 0.503.
For the cell line NCI-H2126, the relative viability with CUDC-101 + Palbociclib (first compound 0.01 µM) was found to be 0.355; with CUDC-101 + Palbociclib (first compound 0.03162 µM) it was 0.346; in the experiment with CUDC-101 + Palbociclib (first compound 0.1 µM) it was 0.337; with CUDC-101 + Palbociclib (first compound 0.3162 µM), 0.364; with CUDC-101 + Palbociclib (first compound 1 µM) it was 0.352; with CUDC-101 + Phenformin (first compound 0.01 µM), 0.556. Also, the relative viability with CUDC-101 + Phenformin (first compound 0.03162 µM) came to 0.532; with CUDC-101 + Phenformin (first compound 0.1 µM), 0.517; with CUDC-101 + Phenformin (first compound 0.3162 µM) it was 0.52; in the experiment with CUDC-101 + Phenformin (first compound 1 µM) it was 0.403; with NVP-TAE684 + Tozasertib (first compound 0.2 µM) it was 0.96; in the experiment with NVP-TAE684 + Tozasertib (first compound 0.6325 µM) it was 0.764. Also, the relative viability with NVP-TAE684 + Tozasertib (first compound 2 µM) came to 0.407; with NVP-TAE684 + Olaparib (first compound 0.2 µM), 0.88; with NVP-TAE684 + Olaparib (first compound 2 µM) it was 0.712.
Take NCI-H2170: the relative viability with CUDC-101 + Palbociclib (first compound 0.01 µM) came to 0.419; in the experiment with CUDC-101 + Palbociclib (first compound 0.03162 µM), 0.402; with CUDC-101 + Palbociclib (first compound 0.1 µM) it was 0.385; with CUDC-101 + Palbociclib (first compound 0.3162 µM) it was 0.37; with CUDC-101 + Palbociclib (first compound 1 µM) it was 0.361; with CUDC-101 + Phenformin (first compound 0.01 µM), 0.407. In addition, the relative viability with CUDC-101 + Phenformin (first compound 0.03162 µM) turned out to be 0.377; in the experiment with CUDC-101 + Phenformin (first compound 0.1 µM) it was 0.459; with CUDC-101 + Phenformin (first compound 0.3162 µM), 0.439; with CUDC-101 + Phenformin (first compound 1 µM), 0.375; with NVP-TAE684 + Tozasertib (first compound 0.2 µM), 0.735; with NVP-TAE684 + Tozasertib (first compound 0.6325 µM) it was 0.632. For the same cell line, the relative viability came to 0.543 in the experiment with NVP-TAE684 + Tozasertib (first compound 2 µM), 0.583 with NVP-TAE684 + Olaparib (first compound 0.2 µM), 0.58 with NVP-TAE684 + Olaparib (first compound 0.6325 µM) and 0.518 with NVP-TAE684 + Olaparib (first compound 2 µM).
For the cell line NCI-H2228, the relative viability with CUDC-101 + Palbociclib (first compound 0.01 µM) came out at 0.891; with CUDC-101 + Palbociclib (first compound 0.03162 µM) it was 1.09; in the experiment with CUDC-101 + Palbociclib (first compound 0.1 µM), 0.874; with CUDC-101 + Palbociclib (first compound 0.3162 µM), 0.805; with CUDC-101 + Palbociclib (first compound 1 µM) it was 0.664; with CUDC-101 + Phenformin (first compound 0.01 µM), 0.27. In addition, the relative viability was found to be 0.272 in the experiment with CUDC-101 + Phenformin (first compound 0.03162 µM); 0.29 with CUDC-101 + Phenformin (first compound 0.1 µM); 0.403 in the experiment with CUDC-101 + Phenformin (first compound 0.3162 µM); 0.254 in the experiment with CUDC-101 + Phenformin (first compound 1 µM); 0.196 with NVP-TAE684 + Tozasertib (first compound 0.2 µM); 0.129 with NVP-TAE684 + Tozasertib (first compound 0.6325 µM). Further, the relative viability came out at 0.136 with NVP-TAE684 + Tozasertib (first compound 2 µM), 0.36 in the experiment with NVP-TAE684 + Olaparib (first compound 0.2 µM), 0.384 with NVP-TAE684 + Olaparib (first compound 0.6325 µM) and 0.109 in the experiment with NVP-TAE684 + Olaparib (first compound 2 µM).
Consider NCI-H2342, for which the relative viability with CUDC-101 + Palbociclib (first compound 0.01 µM) is 0.526; with CUDC-101 + Palbociclib (first compound 0.03162 µM), 0.547; in the experiment with CUDC-101 + Palbociclib (first compound 0.1 µM), 0.523; in the experiment with CUDC-101 + Palbociclib (first compound 0.3162 µM) it was 0.505; in the experiment with CUDC-101 + Palbociclib (first compound 1 µM), 0.556; in the experiment with CUDC-101 + Phenformin (first compound 0.01 µM), 0.619. The relative viability with CUDC-101 + Phenformin (first compound 0.03162 µM) worked out at 0.621; with CUDC-101 + Phenformin (first compound 0.1 µM), 0.667; with CUDC-101 + Phenformin (first compound 0.3162 µM), 0.643; in the experiment with CUDC-101 + Phenformin (first compound 1 µM), 0.43; with NVP-TAE684 + Tozasertib (first compound 0.2 µM) it was 0.572; with NVP-TAE684 + Tozasertib (first compound 0.6325 µM) it was 0.485. For the same cell line, the relative viability came to 0.297 in the experiment with NVP-TAE684 + Tozasertib (first compound 2 µM), 0.419 in the experiment with NVP-TAE684 + Olaparib (first compound 0.2 µM), 0.427 in the experiment with NVP-TAE684 + Olaparib (first compound 0.6325 µM) and 0.3 with NVP-TAE684 + Olaparib (first compound 2 µM).
NCI-H2347: the relative viability came out at 0.469 with CUDC-101 + Palbociclib (first compound 0.01 µM); 0.431 with CUDC-101 + Palbociclib (first compound 0.03162 µM); 0.429 with CUDC-101 + Palbociclib (first compound 0.1 µM); 0.435 with CUDC-101 + Palbociclib (first compound 0.3162 µM); 0.418 in the experiment with CUDC-101 + Palbociclib (first compound 1 µM); 0.446 in the experiment with CUDC-101 + Phenformin (first compound 0.01 µM). The relative viability stood at 0.299 with CUDC-101 + Phenformin (first compound 0.03162 µM); 0.308 in the experiment with CUDC-101 + Phenformin (first compound 0.1 µM); 0.512 with CUDC-101 + Phenformin (first compound 0.3162 µM); 0.371 with CUDC-101 + Phenformin (first compound 1 µM); 0.59 with NVP-TAE684 + Tozasertib (first compound 0.2 µM); 0.487 with NVP-TAE684 + Tozasertib (first compound 0.6325 µM). Besides, the relative viability was 0.359 in the experiment with NVP-TAE684 + Tozasertib (first compound 2 µM), 0.573 with NVP-TAE684 + Olaparib (first compound 0.2 µM), 0.57 with NVP-TAE684 + Olaparib (first compound 0.6325 µM) and 0.49 with NVP-TAE684 + Olaparib (first compound 2 µM).

The record behind these values is the supplement of paper PMC10307832.
